These results are taken from US9289506B2, “Surface binding of nanoparticle based drug delivery to tissue” (Massachusetts Institute of Technology, priority 2013, dated 2016).

The nature of data set [1]: Non-equilibrium diffusive transport across cartilage disks (transport cell). Type of data set: in vitro ADME, bovine. The following applies: 400 μm thick disks, 20° C. As to the method:
Real-time measurement of diffusive transport of Avidin and NeutrAvidin through young bovine cartilage disks (with intact superficial zone) was measured using a diffusion chamber consisting of two compartments as described previously (Garcia et al., Arch Biochem Biophys, 2003). Groups of three cartilage disks (6 mm diameter, 400 μm thick) were clamped by O-rings between the two compartments of the diffusion chamber (with total exposed tissue area for transport of 0.28 cm^2/disk), such that solute transport from the upstream compartment into and across the cartilage disks, simultaneously, could occur only from the superficial zone of the cartilage (schematic shown in the inset of FIG. 14). The compartments were treated with casein to prevent non-specific adsorption of solutes to the chamber surfaces. […] Aliquots were taken from each chamber at different time intervals, and fluorescence was measured using a plate reader.
The compartment volume of 25 ml is approximately 1,000× larger than the volume of the cartilage plugs in the configuration of FIG. 14 (inset). […] This configuration thereby focuses on quantitation of steady state solute flux and assessment of effective solute diffusivity within cartilage. […]
[formula] where δ is the thickness of the cartilage disk (˜400 μm). DEFF for Avidin was calculated to be 3.8×10^−7 cm^2/s. […]

Data set [2] can be described thus: Net charge of Avidin estimated from reported electrokinetic zeta potential. In kind it is physicochemical. The following applies: Grahame equation from zeta potential, spherical shape diameter ~7 nm. The text has this:
The zeta potential of Avidin molecules in dilute solution of DI water at pH 5 has been reported to be 10 mV (Dougherty et al., Langmuir, 2009). Using Grahame Equation of electrokinetics (Grodzinsky et al., New York: Garland Science, 2011) that related zeta potential to particle surface charge density, and assuming that Avidin attains a spherical shape (diameter ˜7 nm), the zeta potential of 10 mV corresponds to an effective net molecular charge of ˜+7.3.

In the case of “Avidin: positively charged globular glycosylated tetrameric protein, pI 10.5, 66 kDa, diameter ~7 nm (Invitrogen); SEQ ID NO 1”, in data set [1], the “time lag τlag to achieve the steady state flux” value was approximately 35 min. Also, the “effective net molecular charge” value in data set [2] was “~+7.3”.
